“And” between values parts separate entries of the source, which are not always exact repeats. Equal entries are not always repeated. Where two headings read alike, the source gives them in different places.

This note sets out measurements from patent US12090157B2, “Non-invasive pet imaging of CDK4/6 activation in cancer” (New York University, priority 2020, dated 2024).

Series [1] deals with MCF-7 cells. In words: In vitro cell-associated uptake of ^18F-CDKi. It counts as cell-based, human. The method, then:
MCF-7 cells were seeded in a 6 well plates (5×10^6 cells 24 hours prior the experiment). The next day, ^18F-CDKi was added alone or together with a 50-fold excess Palbociclib and incubated at 37° C. for 1 h. After 1 h, cells were firstly washed three times with PBS, then lysed with 1N NaOH, and finally media and cells counted in a γ-counter. The percentage of bound/unbound radioligand at each time point was measured in triplicate and plotted as a function of time.

Series [2] concerns MCF-7 xenografts. In words: MicroPET/CT imaging and ex-vivo biodistribution in MCF-7 bearing mice. Details: species or system mouse. Particulars: for kidney concentration / liver concentration / small intestines concentration: 2 h post injection. The method, then: Female athymic nude CrTac:NCr-Foxnlnu mice (n=35) were purchased from Taconic Laboratories (Hudson, NY). 20 mice received subcutaneous injections with 2×10^6 human MCF-7 cancer cells in Matrigel® (BD Biosciences, San Jose, CA) into each right shoulder and were allowed to grow for approximately two months until the tumors reached ˜10 mm in diameter. All mice were supplemented with 60 days 0.72 mg slow release estradiol pellets purchased from Innovative Research of America (IRA, Sarasota, FL) implanted in the left flank. Mice were anesthetized (isoflurane 1.5%, 2 L/min medical air) during tumor implantation and microPET imaging.
Twelve subcutaneous MCF-7 implanted athymic nude mice were divided in two groups (blocked and unblocked) and administered with ^18F-CDKi (˜7.4 mBq) via tail vein injection. Approximately 5 min prior to PET acquisition, mice were anesthetized by inhalation of a mixture of isoflurane (Baxter Healthcare, Deerfield, IL, USA; 2% isoflurane, 2 L/min medical air) and positioned on the scanner bed. Anesthesia was maintained using a 1% isoflurane/O2 mixture. PET data for each mouse was recorded and acquired at 30 min p.i and at 120 min p.i. Blocking studies were performed after a pre-injection of 50-fold excess palbociclib (8.4 nmol, 3.8 μg, 30 min before). The duration of the microPET/CT imaging sessions was 20 min each.
Biodistribution of ^18F-CDKi was performed in subcutaneous MCF-7 bearing athymic nude mice (n=8). Mice were divided (n=4/group) in blocked and unblocked (50-fold excess palbociclib, 30 minutes before) and administered with ^18F-CDKi via tail vein injection (1.85 mBq). At 120 minutes post injection of the radioligand, the mice were sacrificed and organs of interest were collected. Organs were weighed, and activity was measured with a WIZARD^2 automatic γ-counter (PerkinElmer, Boston, MA). The radiopharmaceutical uptake was expressed as a percentage of injected dose per gram (% ID/g) using the following formula: [(activity in the target organ/grams of tissue)/injected dose]×100%.

The nature of series [3]: Blood half-life. It counts as in vivo, mouse. The following applies: mice, single bolus intravenous injection. The method, then: The blood half-life of ^18F-CDKi was calculated by measuring the activity of blood samples collected at different time points p.i. (5, 15, 30, 45, 60, 90 and 120 minutes). Female nude mice (n=3) were injected via lateral tail vein with ^18F-CDKi (and blood samples obtained by retro-orbital bleed using tared capillary tubes. Samples were weighed, and activity was measured by γ-counter. The blood half-life was calculated using Graph Prism 7 (GraphPad Software, La Jolla, CA) using a two-phase decay least squares fitting method and expressed as % ID/g.

The subject of series [4] is CDK4/6. Put plainly: IC50 binding affinity, competitive ATP quantitative assay (CellTiter-Glo, MCF-7 cells). Type of series: cell-based, human. Particulars: for binding affinity to CDK4/6: FIG. 2A legend. The protocol:
(§1) IC50 values were determined using a competitive ATP quantitative assay. […]. MCF-7 cells were cultured at 37° C. for 4 h. Then, ^19F-CDKi or vehicle was added at different concentration and incubated at 37° C. for 96 h. Cell viability was then assessed using CellTiter-Glo® Luminescent Assay (Promega, Madison, WI), used accordingly to manufacturer's guidelines. Cell viability inhibition (%) was calculated according to the formula [1−(mean luminosity of treated sample/mean luminosity of vehicle control)]×100. IC50 for growth or viability inhibition was calculated using Graph Prism 8 (GraphPad Software Inc, La Jolla, CA). We used ^18F-CDKi and palbobiclib for competitive displacement studies. MCF-7 cells were seeded in a 12 wells plate (1×10^5 cells 24 h prior the experiment). The next day, a fixed concentration of ^18F-CDKi (50 nM) was co-incubated with linearly doubling concentrations of palbociclib (from 0 to 500 nM) at 37° C. for 2 h. Then, the cells were washed twice with PBS, lysed with 1N NaOH, and the activity (CPM) measured in a γ-counter for bound ^18F radioligand. The percentage of bound radioligand was finally plotted against palbociclib concentration. Competitive displacement curves were fitted using Graph Prism 8 (GraphPad Software Inc, La Jolla, CA).

The nature of series [5]: Octanol/water partition coefficient. Type of series: physicochemical. The following applies: 1-octanol / phosphate buffered saline pH 7.4. The method, then:
The Chemical Hydrophobicity Indices (CHI) were measured using a previously developed procedure (Valkó, Journal Chromatogr A. 2004; 1037:299-310, Valkó et al., Anal Chem. 1997; 69:2022-2029. Briefly, reverse phase HPLC was used to measure the retention times of a set of standards with known CHI. A standard curve was then created to calculate the CHI of […] based on the HPLC retention time. The lipophilicity of the ^18F-CDKi was acquired by adding 0.09 mBq to a mixture of 0.5 mL of 1-octanol and 0.5 mL of 25 mM phosphate buffered saline (pH 7.4) and mixed for 5 minutes. Then, the mixture was centrifuged at 15.000 rpm for 5 minutes. 100 μL samples were obtained from organic and aqueous layers, and the radioactivity of the samples were measured in a WIZARD^2 automatic γ-counter. The experiment was performed in triplicate, and the resulting log Pow was calculated as the mean±SD.

Series [6] is described as follows: In vitro stability. It counts as in vitro ADME. The following applies: after 4 h of incubation.
Series [7] has as its system MCF-7 cells. Put plainly: Competitive displacement of ^18F-CDKi by palbociclib in MCF-7 cells. Particulars: 50 nM ^18F-CDKi, palbociclib 0 to 500 nM, 2 h, read-out: inhibition effect, competitive displacement of palbociclib. Type of series: cell-based, human. The method, then:
as §1

The mark [8] stands for this setting: first of two values joined by 'or'.
[9] abbreviates: second of two values joined by 'or'.

For the compound `CC(=O)c1c(C)c2cnc(Nc3ccc(N4CCN(C(=O)c5ccc([18F])cc5)CC4)cn3)nc2n(C2CCCC2)c1=O` [^18F-CDKi], the “cell uptake blocked by excess of cold, unlabeled palbociclib” value in series [1] was greater than 98%. This compound gave a maximum intracellular concentration in series [1] (10 minutes post incubation) of roughly 65%. For the same compound, in series [1] (blocked), the “tracer uptake when co-incubated with a molar excess of Palbociclib” value is on record as less than 5%. Further, in series [2] (setting [8]), the kidney concentration came out at 7.99±0.7 % ID/g, the liver concentration was determined as 6±0.5 % ID/g and the small intestines concentration was 9.6±2.7 % ID/g. In series [2] (setting [9]), this compound showed a kidney concentration of 9.6±0.98 % ID/g, a liver concentration of 6.77±1.15 % ID/g and a small intestines concentration of 10±1.19 % ID/g. In addition, in series [2] (MCF-7 bearing mice, 2 h p.i.), the tumor-to-blood ratio was greater than 5, the tumor-to-bone ratio is greater than 10 and the tumor-to-muscle ratio is recorded as greater than 15. Besides, in series [2] (MCF-7 bearing mice, in words), the “tumor uptake after injection of palbociclib prior to the radiotracer” value is “negligible”. For the same compound, in series [2] (MCF-7 xenografts, 50-fold excess of cold palbociclib pre-injected), the “tumor uptake, blocked” value was roughly 0.3 % ID/g. Also, the tumor uptake in series [2] (MCF-7 xenografts, ^18F-CDKi alone, 2 h p.i.) is roughly 4 % ID/g. For the same compound, the clearance route entry in series [2] (PET imaging and biodistribution, mice) is on record as “hepatobiliary route”. In addition, in series [3], the “in vivo blood half-life t1/2(weighted)” value was 7.03 min and 7 min. In addition, the IC50 in series [4] (FIG. 2A, read-out: targeting affinity to CDK4/6) is roughly 13 nM. Besides, in series [4] (in words), the “IC50 against both CDK4 and CDK6 kinases” value is given as “single digit nanomolar”; the “binding affinity to CDK4/6” value is listed as “nanomolar”. Also, the IC50 result in series [4] (in words, similar to the parent compound palbociclib) is “nanomolar range”. The “octanol/water phase partition coefficient (log DO/W)” value in series [5] stood at 1.91±0.24. For the same compound, in series [5] (read-out: octanol/water phase partition coefficient (log DO/W)), the logD amounted to 1.91 ± 0.24. In series [6], the “in vitro stability, parent compound intact” value was “more than 98%”.

In the case of `CC(=O)c1c(C)c2cnc(Nc3ccc(N4CCN(C(=O)c5ccc(F)cc5)CC4)cn3)nc2n(C2CCCC2)c1=O` [^19F-CDKi], the IC50 in series [7] was roughly 18 nM. In series [4] (in words), the “binding affinity to CDK4/6” value is listed as “nanomolar”.
